The source of these data is patent US20100166660A1, “METHODS OF MODELING MIGRAINE PAIN AND IDENTIFYING CANDIDATE COMPOUNDS FOR THE TREATMENT OF MIGRAINE” (priority 2007, published 2010).

What all share (type): in vivo, rat
In data set [1] the test system is Male Sprague Dawley rats. Kind of data set: Dural stimulus-induced tactile hyperesthesia of the hindpaw (50% paw withdrawal threshold, von Frey filaments). Conditions: administered to the dura; results two hours after treatment; FIG. 4. On the procedure: Male Sprague Dawley rats were anesthetized using ketamine/xylazine (80-100 mg/kg, intraperitoneal). The top of the head was shaved using a rodent clipper (Oster Golden A5 w/size 50 blade), and the shaved area was cleaned with betadine and 70% ethanol. Animals were placed into a stereotaxic apparatus (Stoelting Co., #51600) and the body core temperatures of 37° C. were maintained using a heating pad placed below the animals. Within the shaved and cleaned area on the head, a 2 cm incision was made using a scalpel with a #10 blade, and any bleeding was cleaned using sterile cotton swabs. […]
Paw withdrawal thresholds to tactile stimuli were determined in response to probing with calibrated von Frey filaments (Stoelting Co., #58011). […] The 50% paw withdrawal threshold was determined by the non-parametric method of Dixon (Dixon, Ann. Rev. Pharmacol. Toxicol. 20:441-462, 1980; also see, e.g., Chaplan et al., J. Neurosci. Meth. 53:55-63, 1994). […] This “up-down” method was repeated until three changes in behavior were determined. […]
The 50% paw withdrawal threshold was determined as (10^[Xf+kδ])/10,000, where Xf is the value of the last von Frey filament employed, k is the Dixon value for the positive/negative pattern, and δ is the mean (log) difference between stimuli. […]

For data set [2], the system named is Male Sprague Dawley rats. Put plainly: Candidate compound effect on facial tactile hyperesthesia induced by dural inflammation (IM cocktail). On the procedure:
In another set of experiments, facial response thresholds of the rats to tactile stimuli were determined. Calibrated von Frey filaments were applied perpendicularly to the midline of the forehead within a 3 mm diameter area just above the plane of the eyes, for six to eight seconds, until the filaments buckled slightly. A positive response was indicated by a sharp withdrawal of the head, which sometimes included an attempt to grasp and/or bite the filament. Special care was taken when applying the filaments to the forehead in order to prevent a positive facial response due to dynamic force and/or deflection of the hairs. The 50% facial response threshold was determined by the non-parametric method of Dixon. […] This “up-down” method was repeated until three changes in behavior were determined. The pattern of positive and negative responses was tabulated.
The 50% facial response threshold was determined as (10^[Xf+kδ])/10,000, where Xf is the value of the last von Frey filament employed, k is the Dixon value for the positive/negative pattern, and δ is the mean (log) difference between stimuli. Only naïve animals with baselines of eight grams were used in the experiment. Eight grams was used as the maximal cut-off. […]

In data set [3] the test system is Male Sprague Dawley rats. Kind of data set: Candidate compound effect on tactile hyperesthesia of the hindpaw induced by dural inflammation (IM cocktail). How it is done: Paw withdrawal thresholds to tactile stimuli were determined in response to probing with calibrated von Frey filaments (Stoelting Co., #58011). The von Frey filaments were applied perpendicularly to the plantar surface of the hindpaw of the animal until it buckled slightly, and were held for three to six seconds. A positive response was indicated by a sharp withdrawal of the paw. The 50% paw withdrawal threshold was determined by the non-parametric method of Dixon (Dixon, Ann. Rev. Pharmacol. Toxicol. 20:441-462, 1980; also see, e.g., Chaplan et al., J. Neurosci. Meth. 53:55-63, 1994). […] This “up-down” method was repeated until three changes in behavior were determined. The pattern of positive and negative responses was tabulated.
The 50% paw withdrawal threshold was determined as (10^[Xf+kδ])/10,000, where Xf is the value of the last von Frey filament employed, k is the Dixon value for the positive/negative pattern, and δ is the mean (log) difference between stimuli. Only naïve animals with baselines of 11 to 15 grams were used in the experiment. Fifteen grams was used as the maximal cut-off. Five days post-migraine surgery, paw withdrawal thresholds were re-tested using the same habituation and von Frey procedure as stated above. Data were converted to percent “antiallodynia” by the following formula: percent antiallodynia=100×(test value−post-treatment baseline value)/(pretreatment baseline value−post-treatment baseline value).
After establishing baseline paw withdrawal thresholds, individual animals were removed from the testing chamber, the cap of the migraine intracranial guide tube was removed, and animals received an injection of either an IM cocktail (1 mM histamine, 1 mM serotonin, 1 mM bradykinin, and 1 mM prostaglandin E2) or vehicle (i.e., control) at 10 μl volume via the intracranial guide tube over a five- to ten-second period. The IM cocktail was made fresh on the day of each experiment. The cap of the intracranial guide tube was replaced, individual animals were placed back into their corresponding testing chamber, and paw withdrawal thresholds were measured at one-hour intervals over a six-hour time course. […] Data were converted to percent “antiallodynia” by the following formula: percent antiallodynia=100×(test value−post-treatment baseline value)/(pretreatment baseline value−post-treatment baseline value).
Rats were anesthetized with ketamine/xylazine (80-100 mg/kg, intraperitoneal) for stereotaxic placement of bilateral cannulae in the RVM. […]

Data set [4] concerns rats. Put plainly: Model for allodynia: continuous drug infusion, then paw withdrawal threshold with von Frey filaments. The settings on record: continuous infusion (sumatriptan: 24 hour infusion at 0.6 mg/k/day); Appendix A-5. On the procedure:
We have developed a model to determine the propensity for a compound to induce allodynia upon administration. Briefly, rats are infused continuously with a drug for a specified period of time. After the time, rats are probe with von Frey filaments to determine the paw withdrawal threshold. The compound may be administered for more than 2, 3, 4, 5, 6, 7, 8, 9, 10, 11, 12, 13, 14, 15, 16, 17, 18, 19, 20, 21, 22, 23, or 24 hours.

Data set [5] relates to rats. Put plainly: Oral administration of compounds in the migraine model of the invention (tactile allodynia). The text has this: Oral delivery was accomplished by using an 18-gauge gavage needle attached to a 1 cc syringe.

With `N[C@@H](CCC(=O)N[C@@H](CSN=O)C(=O)NCC(=O)O)C(=O)O` [SNOG, s-nitrosylglutathione], in the data set with Male Sprague Dawley rats [1], the “tactile hyperesthesia of the hindpaw” value was “produced a tactile hyperesthesia effect similar to that induced by administration of the IM cocktail”.
As for `CCCCN1CCCCC1C(=O)Nc1c(C)cccc1C` (centres unmarked) [bupivacaine], the “facial response threshold versus rats with dural IM cocktail but no compound” value in the data set with Male Sprague Dawley rats [2] (administration in the RVM thirty minutes after IM cocktail, FIGS. 7A-7B) is given as “increase in facial response threshold”. Besides, the “paw withdrawal threshold versus rats with dural IM cocktail but no compound” value is “increase in paw withdrawal threshold” in the data set with Male Sprague Dawley rats [3] (administration in the RVM thirty minutes after IM cocktail, FIG. 9A) and “significant increase in test animal paw withdrawal threshold” with Male Sprague Dawley rats [3] (administration in the RVM two hours after IM cocktail, FIG. 9B).
As to `CN1CC=C(c2c[nH]c3ccc(NC(=N)c4cccs4)cc23)CC1` [cpd 1], in the data set with rats [4], the “induction of tactile allodynia after continuous infusion” value is “do not induce tactile allodynia”. Moreover, the “attenuation of tactile allodynia in the migraine model” value with rats [5] (after oral administration, Appendix A-4) is “attenuated tactile allodynia”. The “oral activity in the migraine model” value in the data set on rats [5] (oral, Appendix A-3) is “orally active”.
As for `CNS(=O)(=O)Cc1ccc2[nH]cc(CCN(C)C)c2c1` [sumatriptan], the “induction of tactile allodynia after continuous infusion” value with rats [4] is listed as “induces tactile allodynia”. In addition, the “facial response threshold versus rats with dural IM cocktail but no compound” value in the data set on Male Sprague Dawley rats [2] (systemic administration thirty minutes after IM cocktail, FIGS. 6A-6B) is reported as “increase in facial response threshold”. The “paw withdrawal threshold versus rats with dural IM cocktail but no compound” value in the data set with Male Sprague Dawley rats [3] (0.6 mg/kg s.c. ten minutes prior to IM cocktail, FIG. 8) is on record as “increase in paw withdrawal threshold”. Further, in the data set on Male Sprague Dawley rats [3] (sumatriptan succinate 1 mg/kg s.c. five minutes prior to dural IM cocktail, two hours after dural treatment, FIG. 10), the “development of tactile hyperesthesia (paw withdrawal thresholds)” value was “prevent or ameliorate the development of tactile hyperesthesia”.
